This passage reports inhibition, IC50 and fold change (FC) results from ChEMBL document CHEMBL5653631, “A Potent and Selective ULK1 Inhibitor Suppresses Autophagy and Sensitizes Cancer Cells to Nutrient Stress” (iScience, 2018).

The target of assay [1] is Rho-associated protein kinase 2 (Homo sapiens) (UniProt O75116). Briefly: Inhibition of human recombinant ROCK2 at 40 nM in presence of ATP by radiometric assay relative to control.
Assay [2] concerns the target Phosphorylase b kinase gamma catalytic chain, skeletal muscle/heart isoform (Homo sapiens) (UniProt Q16816). In words: Inhibition of human recombinant PHKg1 at 40 nM in presence of ATP by radiometric assay relative to control.
Assay [3] deals with Serine/threonine-protein kinase 17A (Homo sapiens, UniProt Q9UEE5). Briefly: Inhibition of human recombinant DRAK1.
In assay [4] the target is Tyrosine-protein kinase Fes/Fps (Homo sapiens) (UniProt P07332). Briefly: Inhibition of human recombinant FES at 40 nM related to control ULK1.
The target in assay [5] is Serine/threonine-protein kinase tousled-like 2 (Homo sapiens) (UniProt Q86UE8). Briefly: Inhibition of human recombinant TLK2 at 40 nM in presence of ATP by radiometric assay relative to control.
Assay [6] deals with Ephrin type-A receptor 4 (Homo sapiens) (UniProt P54764). In words: Inhibition of human recombinant EphA4 at 500 nM in presence of ATP by radiometric assay relative to control.
The target in assay [7] is Tyrosine-protein kinase HCK (Homo sapiens) (UniProt P08631). In words: Inhibition of human recombinant HCK at 500 nM related to control ULK1.
Assay [8] addresses T1, Myosin-IIIb (Homo sapiens) (UniProt Q8WXR4).
T1 sequence (whole entry): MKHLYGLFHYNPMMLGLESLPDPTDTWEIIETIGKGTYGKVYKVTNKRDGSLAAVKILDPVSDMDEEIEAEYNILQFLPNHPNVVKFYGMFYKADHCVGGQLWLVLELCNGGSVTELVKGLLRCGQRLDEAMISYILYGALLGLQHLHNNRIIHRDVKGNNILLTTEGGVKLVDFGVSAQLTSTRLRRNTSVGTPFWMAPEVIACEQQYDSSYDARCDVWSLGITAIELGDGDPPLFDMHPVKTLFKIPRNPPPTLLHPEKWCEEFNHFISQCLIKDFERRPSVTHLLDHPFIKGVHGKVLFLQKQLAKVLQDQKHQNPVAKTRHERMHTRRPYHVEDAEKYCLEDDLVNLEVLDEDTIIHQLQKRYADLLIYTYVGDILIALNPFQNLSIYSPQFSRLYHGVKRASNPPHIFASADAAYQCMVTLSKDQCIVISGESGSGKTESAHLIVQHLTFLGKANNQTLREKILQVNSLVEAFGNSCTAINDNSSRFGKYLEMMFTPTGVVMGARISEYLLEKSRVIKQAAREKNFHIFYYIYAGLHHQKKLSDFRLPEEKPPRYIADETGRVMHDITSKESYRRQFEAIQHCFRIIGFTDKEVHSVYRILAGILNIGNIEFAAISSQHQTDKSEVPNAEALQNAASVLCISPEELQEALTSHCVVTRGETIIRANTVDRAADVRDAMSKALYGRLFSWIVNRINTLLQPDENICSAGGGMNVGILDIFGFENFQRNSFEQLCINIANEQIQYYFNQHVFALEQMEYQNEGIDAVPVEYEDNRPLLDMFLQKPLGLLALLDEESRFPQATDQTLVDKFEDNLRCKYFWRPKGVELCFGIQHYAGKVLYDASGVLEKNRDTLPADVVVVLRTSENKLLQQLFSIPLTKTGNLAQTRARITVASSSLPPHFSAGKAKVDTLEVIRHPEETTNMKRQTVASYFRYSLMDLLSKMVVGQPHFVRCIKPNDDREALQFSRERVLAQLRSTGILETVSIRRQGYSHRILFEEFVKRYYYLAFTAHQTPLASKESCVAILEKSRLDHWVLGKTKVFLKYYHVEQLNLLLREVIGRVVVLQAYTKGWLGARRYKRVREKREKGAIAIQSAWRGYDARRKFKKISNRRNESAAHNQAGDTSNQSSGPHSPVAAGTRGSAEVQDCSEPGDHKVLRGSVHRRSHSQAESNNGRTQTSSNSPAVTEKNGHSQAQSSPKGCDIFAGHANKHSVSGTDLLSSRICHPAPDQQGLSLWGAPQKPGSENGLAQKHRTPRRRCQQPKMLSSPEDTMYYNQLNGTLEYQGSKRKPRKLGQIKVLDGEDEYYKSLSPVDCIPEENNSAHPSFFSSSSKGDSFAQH
In words: Inhibition of human recombinant MYO3B at 500 nM related to control ULK1.

For assay [9], the target named is T2, Ephrin type-B receptor 3 (Homo sapiens) (UniProt P54753).
T2 sequence (whole entry): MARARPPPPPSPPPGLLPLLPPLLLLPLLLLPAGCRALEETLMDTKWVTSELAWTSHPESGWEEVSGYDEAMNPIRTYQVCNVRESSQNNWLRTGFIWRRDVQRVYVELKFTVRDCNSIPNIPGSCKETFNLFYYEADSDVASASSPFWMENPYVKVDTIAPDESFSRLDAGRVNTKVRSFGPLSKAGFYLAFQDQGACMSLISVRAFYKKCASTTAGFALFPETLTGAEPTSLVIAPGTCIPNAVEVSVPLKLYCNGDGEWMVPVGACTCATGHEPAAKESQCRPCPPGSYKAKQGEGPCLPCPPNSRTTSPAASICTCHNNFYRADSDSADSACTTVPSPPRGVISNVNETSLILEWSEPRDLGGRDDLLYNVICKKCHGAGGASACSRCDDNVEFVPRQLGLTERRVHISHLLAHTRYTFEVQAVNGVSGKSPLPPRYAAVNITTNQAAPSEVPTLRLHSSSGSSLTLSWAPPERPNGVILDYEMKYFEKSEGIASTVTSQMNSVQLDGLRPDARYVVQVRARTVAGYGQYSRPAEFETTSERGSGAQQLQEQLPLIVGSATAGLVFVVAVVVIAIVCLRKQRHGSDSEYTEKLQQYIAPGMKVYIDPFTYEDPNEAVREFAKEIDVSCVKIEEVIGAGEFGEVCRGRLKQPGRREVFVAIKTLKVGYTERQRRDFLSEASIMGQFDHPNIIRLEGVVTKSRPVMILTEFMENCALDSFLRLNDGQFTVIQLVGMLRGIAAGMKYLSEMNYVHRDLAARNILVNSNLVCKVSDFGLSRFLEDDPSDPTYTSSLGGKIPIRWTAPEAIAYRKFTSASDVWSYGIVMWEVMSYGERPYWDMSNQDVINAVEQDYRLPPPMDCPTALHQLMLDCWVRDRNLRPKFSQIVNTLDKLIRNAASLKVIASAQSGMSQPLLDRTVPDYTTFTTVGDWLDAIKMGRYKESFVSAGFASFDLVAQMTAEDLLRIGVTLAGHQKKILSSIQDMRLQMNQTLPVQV
In words: Inhibition of human recombinant EphB3 at 15 nM related to control ULK1.

Assay [10] concerns the target Non-receptor tyrosine-protein kinase TYK2 (Homo sapiens) (UniProt P29597). Briefly: Inhibition of human recombinant TYK2 at 15 nM related to control ULK1.
The target in assay [11] is Protein kinase C iota type (Homo sapiens) (UniProt P41743). Briefly: Inhibition of human recombinant PKCi at 15 nM related to control ULK1.
Sequence of Protein kinase C iota type (Homo sapiens) (P41743 whole entry, looked up): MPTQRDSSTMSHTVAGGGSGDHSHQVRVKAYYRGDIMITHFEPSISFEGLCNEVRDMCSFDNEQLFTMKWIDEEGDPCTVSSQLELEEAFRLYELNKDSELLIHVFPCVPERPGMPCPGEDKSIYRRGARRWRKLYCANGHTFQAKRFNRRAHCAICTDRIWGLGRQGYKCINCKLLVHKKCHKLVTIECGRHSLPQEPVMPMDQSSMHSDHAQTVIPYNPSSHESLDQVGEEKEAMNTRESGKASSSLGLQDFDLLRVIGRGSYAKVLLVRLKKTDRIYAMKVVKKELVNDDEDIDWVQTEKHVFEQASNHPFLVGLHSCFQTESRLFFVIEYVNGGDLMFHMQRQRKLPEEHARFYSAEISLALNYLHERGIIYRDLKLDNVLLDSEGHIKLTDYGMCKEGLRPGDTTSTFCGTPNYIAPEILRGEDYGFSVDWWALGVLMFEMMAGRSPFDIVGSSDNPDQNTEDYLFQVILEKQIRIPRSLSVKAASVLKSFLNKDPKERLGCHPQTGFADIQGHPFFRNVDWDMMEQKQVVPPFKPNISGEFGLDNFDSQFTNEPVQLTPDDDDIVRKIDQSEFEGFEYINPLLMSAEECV

Sequence of Ephrin type-A receptor 4 (Homo sapiens) (P54764 whole entry): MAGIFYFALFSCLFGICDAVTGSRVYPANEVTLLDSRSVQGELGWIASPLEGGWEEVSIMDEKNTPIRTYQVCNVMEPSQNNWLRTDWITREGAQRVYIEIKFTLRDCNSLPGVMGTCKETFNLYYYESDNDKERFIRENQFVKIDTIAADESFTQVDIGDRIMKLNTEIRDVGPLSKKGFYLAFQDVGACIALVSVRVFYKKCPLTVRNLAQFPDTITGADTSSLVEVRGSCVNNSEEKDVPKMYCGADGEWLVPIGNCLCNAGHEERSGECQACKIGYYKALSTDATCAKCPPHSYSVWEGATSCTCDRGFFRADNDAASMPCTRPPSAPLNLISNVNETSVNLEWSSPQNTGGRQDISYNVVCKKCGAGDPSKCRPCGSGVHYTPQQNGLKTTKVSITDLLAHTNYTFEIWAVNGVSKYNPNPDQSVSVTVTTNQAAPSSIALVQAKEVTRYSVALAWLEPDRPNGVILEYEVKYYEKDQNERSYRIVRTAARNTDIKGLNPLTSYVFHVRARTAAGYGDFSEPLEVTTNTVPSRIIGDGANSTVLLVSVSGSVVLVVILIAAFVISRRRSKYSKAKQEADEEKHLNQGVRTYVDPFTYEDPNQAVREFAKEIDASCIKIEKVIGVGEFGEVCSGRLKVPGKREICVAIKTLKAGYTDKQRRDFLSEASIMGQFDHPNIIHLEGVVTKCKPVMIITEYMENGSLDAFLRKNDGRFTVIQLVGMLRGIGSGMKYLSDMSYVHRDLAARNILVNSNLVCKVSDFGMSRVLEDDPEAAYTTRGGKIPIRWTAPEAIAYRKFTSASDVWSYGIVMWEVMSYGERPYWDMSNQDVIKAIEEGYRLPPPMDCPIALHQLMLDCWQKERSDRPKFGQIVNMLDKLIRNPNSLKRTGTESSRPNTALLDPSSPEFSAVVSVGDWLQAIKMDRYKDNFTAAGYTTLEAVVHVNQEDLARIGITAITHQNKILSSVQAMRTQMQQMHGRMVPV
Sequence of Tyrosine-protein kinase Fes/Fps (Homo sapiens) (P07332 whole entry): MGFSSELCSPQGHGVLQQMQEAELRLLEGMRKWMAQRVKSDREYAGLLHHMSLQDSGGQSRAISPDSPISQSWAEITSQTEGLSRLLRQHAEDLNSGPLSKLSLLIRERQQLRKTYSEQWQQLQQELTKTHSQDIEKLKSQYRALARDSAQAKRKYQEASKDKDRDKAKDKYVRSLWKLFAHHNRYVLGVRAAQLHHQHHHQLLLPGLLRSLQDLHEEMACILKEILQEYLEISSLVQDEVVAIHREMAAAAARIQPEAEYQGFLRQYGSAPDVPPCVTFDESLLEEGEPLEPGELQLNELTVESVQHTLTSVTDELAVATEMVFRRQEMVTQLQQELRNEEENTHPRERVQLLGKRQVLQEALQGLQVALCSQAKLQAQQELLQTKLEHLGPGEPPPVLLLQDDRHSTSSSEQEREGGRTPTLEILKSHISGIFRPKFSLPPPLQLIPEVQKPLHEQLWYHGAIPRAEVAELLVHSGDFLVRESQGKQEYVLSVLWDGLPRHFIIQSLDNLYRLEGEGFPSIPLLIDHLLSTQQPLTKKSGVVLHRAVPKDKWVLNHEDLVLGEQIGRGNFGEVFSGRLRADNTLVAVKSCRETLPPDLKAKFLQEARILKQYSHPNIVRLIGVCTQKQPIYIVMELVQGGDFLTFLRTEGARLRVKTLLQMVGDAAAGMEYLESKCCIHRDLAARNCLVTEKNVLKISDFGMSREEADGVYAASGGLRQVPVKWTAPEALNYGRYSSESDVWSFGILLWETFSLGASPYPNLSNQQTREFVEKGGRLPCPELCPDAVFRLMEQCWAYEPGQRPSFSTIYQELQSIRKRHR
Sequence of Phosphorylase b kinase gamma catalytic chain, skeletal muscle/heart isoform (Homo sapiens) (Q16816 whole entry, looked up, canonical isoform): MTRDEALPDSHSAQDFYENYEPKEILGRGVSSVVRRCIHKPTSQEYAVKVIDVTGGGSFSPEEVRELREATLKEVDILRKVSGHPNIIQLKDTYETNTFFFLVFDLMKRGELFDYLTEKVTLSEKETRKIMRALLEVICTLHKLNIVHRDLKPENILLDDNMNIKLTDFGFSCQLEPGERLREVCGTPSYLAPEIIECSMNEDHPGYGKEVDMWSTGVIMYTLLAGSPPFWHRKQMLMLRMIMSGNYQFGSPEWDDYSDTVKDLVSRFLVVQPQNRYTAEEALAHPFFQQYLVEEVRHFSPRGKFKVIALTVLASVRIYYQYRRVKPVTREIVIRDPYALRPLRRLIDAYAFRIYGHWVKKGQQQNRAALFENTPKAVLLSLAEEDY
Sequence of Serine/threonine-protein kinase tousled-like 2 (Homo sapiens) (Q86UE8 whole entry, looked up): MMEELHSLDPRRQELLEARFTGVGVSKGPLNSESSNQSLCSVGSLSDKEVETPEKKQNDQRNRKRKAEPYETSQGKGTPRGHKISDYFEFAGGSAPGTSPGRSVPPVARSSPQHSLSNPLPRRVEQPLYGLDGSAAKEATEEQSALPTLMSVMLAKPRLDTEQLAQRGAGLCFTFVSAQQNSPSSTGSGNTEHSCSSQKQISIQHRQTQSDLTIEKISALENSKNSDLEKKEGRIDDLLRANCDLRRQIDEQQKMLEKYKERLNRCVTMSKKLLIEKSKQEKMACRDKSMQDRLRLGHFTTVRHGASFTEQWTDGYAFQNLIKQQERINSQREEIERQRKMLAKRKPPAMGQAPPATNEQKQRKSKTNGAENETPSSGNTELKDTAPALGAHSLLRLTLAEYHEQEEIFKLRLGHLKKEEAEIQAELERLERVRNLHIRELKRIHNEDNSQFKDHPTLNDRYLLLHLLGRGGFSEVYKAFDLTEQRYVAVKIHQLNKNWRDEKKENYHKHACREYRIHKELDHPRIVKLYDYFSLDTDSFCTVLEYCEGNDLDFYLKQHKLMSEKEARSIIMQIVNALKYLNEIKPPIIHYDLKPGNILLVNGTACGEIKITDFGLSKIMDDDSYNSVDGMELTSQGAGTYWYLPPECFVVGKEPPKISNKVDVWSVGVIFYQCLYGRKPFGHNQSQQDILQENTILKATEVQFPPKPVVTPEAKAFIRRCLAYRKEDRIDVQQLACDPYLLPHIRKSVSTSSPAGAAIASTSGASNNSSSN
Sequence of Rho-associated protein kinase 2 (Homo sapiens) (O75116 whole entry, looked up, canonical isoform): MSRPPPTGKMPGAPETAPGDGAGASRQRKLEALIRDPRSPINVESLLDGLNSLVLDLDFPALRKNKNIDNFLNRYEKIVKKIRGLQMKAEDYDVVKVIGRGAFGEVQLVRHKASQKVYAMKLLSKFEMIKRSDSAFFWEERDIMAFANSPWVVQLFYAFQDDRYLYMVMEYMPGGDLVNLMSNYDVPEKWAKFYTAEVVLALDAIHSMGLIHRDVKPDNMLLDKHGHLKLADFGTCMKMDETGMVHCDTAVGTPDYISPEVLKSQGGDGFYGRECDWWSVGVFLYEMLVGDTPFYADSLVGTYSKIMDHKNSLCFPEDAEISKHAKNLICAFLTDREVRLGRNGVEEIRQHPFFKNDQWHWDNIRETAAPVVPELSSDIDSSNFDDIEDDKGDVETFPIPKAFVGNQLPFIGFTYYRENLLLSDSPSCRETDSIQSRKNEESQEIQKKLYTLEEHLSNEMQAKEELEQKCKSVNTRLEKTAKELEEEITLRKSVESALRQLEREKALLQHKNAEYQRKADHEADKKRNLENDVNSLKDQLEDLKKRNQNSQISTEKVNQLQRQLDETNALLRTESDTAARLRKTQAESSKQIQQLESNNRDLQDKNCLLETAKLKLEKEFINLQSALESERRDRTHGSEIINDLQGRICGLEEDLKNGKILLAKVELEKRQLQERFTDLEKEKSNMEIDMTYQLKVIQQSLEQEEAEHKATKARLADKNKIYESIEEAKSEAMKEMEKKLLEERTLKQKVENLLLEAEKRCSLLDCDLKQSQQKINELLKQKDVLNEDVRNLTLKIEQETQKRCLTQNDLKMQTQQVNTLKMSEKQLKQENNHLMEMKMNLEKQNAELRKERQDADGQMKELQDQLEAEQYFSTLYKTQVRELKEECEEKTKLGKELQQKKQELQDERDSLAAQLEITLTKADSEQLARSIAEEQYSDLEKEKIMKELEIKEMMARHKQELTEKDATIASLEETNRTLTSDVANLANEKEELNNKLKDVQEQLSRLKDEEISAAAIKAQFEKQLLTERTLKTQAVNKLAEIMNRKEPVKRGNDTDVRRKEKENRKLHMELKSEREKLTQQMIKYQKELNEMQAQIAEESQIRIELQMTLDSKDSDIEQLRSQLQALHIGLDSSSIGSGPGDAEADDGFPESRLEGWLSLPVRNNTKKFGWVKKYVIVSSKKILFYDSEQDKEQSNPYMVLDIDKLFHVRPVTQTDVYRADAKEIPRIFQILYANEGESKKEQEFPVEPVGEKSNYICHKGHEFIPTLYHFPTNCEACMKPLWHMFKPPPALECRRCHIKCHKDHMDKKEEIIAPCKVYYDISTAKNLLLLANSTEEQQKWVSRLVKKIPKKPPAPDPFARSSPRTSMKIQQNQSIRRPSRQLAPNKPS

A word on the inhibition: it is the share of the control response that was lost under treatment. The IC50 is the concentration that inhibits the measured activity by half. Turning to `O=C(N[C@@H](C1CC1)C(F)(F)F)c1cc(-c2cnn3cc(-c4ccc(F)cc4)cnc23)cs1`, the inhibition was 2% in assay [1], 12% in assay [2] and 0% in [5]. In assay [3], the IC50 came out at 14 nM. Besides, in [4], the fold change (FC) stood at 0.21.

As to `CNC(=O)c1ccccc1Oc1nc(Nc2cc(OC)c(OC)c(OC)c2)ncc1Br`, the inhibition in assay [6] is 15%. Further, the fold change (FC) in assay [7] came out at 0.23; in assay [8], 0.15.

`CC(C)[C@H](NC(=O)c1cc(-c2cnn3cc(-c4ccc(OCCN5CCCCC5)cc4)cnc23)cs1)C(F)(F)F`: the results for the fold change (FC) in assay [9], in assay [10] and in [11] were 0, 0.02 and 0.05, respectively.
